From PMC9112005, “Sas20 is a highly flexible starch-binding protein in the Ruminococcus bromii cell-surface amylosome” (The Journal of Biological Chemistry, 2022)
“And” between values parts separate entries of the source, which are not always exact repeats. Equal entries are not always repeated. “Also recorded” adds a separate entry of the source. Where two headings read alike, the source gives them in different places.

Tests used:
Sas20d1 W72A = experiment: ITC binding to Sas20d1 W72A mutant; parameters: species or system Ruminococcus bromii; details: 25 °C, one-site binding model, average of three replicates
Sas20d2 W329A = experiment: ITC binding to Sas20d2 W329A mutant; parameters: species or system Ruminococcus bromii
Sas20d2 W375A = experiment: ITC binding to Sas20d2 W375A mutant; parameters: species or system Ruminococcus bromii
Sas20d2 W440A = experiment: ITC binding to Sas20d2 W440A mutant; parameters: species or system Ruminococcus bromii
Sas20d2 W481A = experiment: ITC binding to Sas20d2 W481A mutant; parameters: species or system Ruminococcus bromii; details: 25 °C, one-site binding model, average of three replicates
Sas20d2 = Sas20d2 (Ruminococcus bromii, UniProt A0A2N0UW79); experiment: ITC binding to Sas20d2; details: for N (binding sites): one-site binding model
Method: (§1) ITC measurements were carried out using a TA Instruments Nano ITC. Proteins were dialyzed into 50 mM Hepes (pH = 7.0), and oligosaccharides were prepared using the dialysis buffer. […] For polysaccharide titrations, the concentration of ligand was adjusted to fit a one-site binding model with n = 1; this sets the concentration of the ligand to the concentration of binding sites for the protein within the polysaccharide, as previously described ([77]). The solution was stirred at 250 rpm, and the resulting heat of reaction was measured. Data were analyzed using the TA Instruments NanoAnalyze software package fitting to a one-site binding model.

Sas20d1 = Sas20d1 (Ruminococcus bromii, UniProt Z9RYL2BLZ4); experiment: ITC binding to Sas20d1; details: average of three replicates; for Kd / Kd (μM): 25 °C, 50 mM Hepes pH 7.0, one-site binding model, polysaccharides: based on concentration of binding sites; for N (binding sites): one-site binding model
Method: as §1

Sca5X25-2 = Sca5X25-2 (Ruminococcus bromii, UniProt Z9P1N1M2Z2); experiment: ITC binding to Sca5X25-2
Method: as §1

Sas20d1tr = Sas20d1tr (Ruminococcus bromii, UniProt Z9RYL2BLZ4); experiment: ITC binding to truncated Sas20d1 lacking C-terminal helices
Method: as §1

Sas20d1 Y60A = experiment: ITC binding to Sas20d1 Y60A mutant; parameters: species or system Ruminococcus bromii; details: 25 °C, one-site binding model, average of three replicates
Sca5X25-2a = experiment: ITC binding to Sca5X25-2a; details: 25 °C, one-site binding model, average of three replicates
Method: as §1

Sca5X25-2b = experiment: ITC binding to Sca5X25-2b; details: 25 °C, one-site binding model, average of three replicates
Method: ITC measurements were carried out using a TA Instruments Nano ITC. Proteins were dialyzed into 50 mM Hepes (pH = 7.0), and oligosaccharides were prepared using the dialysis buffer. […] The solution was stirred at 250 rpm, and the resulting heat of reaction was measured. Data were analyzed using the TA Instruments NanoAnalyze software package fitting to a one-site binding model.

[1] = 25 °C, one-site binding model, average of three replicates
[2] = 25 °C, 50 mM Hepes pH 7.0, one-site binding model, average of three replicates, polysaccharides: based on concentration of binding sites
[3] = Kd (μM), 25 °C, one-site binding model, average of three replicates, asterisk denotes fixed Kd

Sequence of Sas20d2 (A0A2N0UW79 entry or part of it): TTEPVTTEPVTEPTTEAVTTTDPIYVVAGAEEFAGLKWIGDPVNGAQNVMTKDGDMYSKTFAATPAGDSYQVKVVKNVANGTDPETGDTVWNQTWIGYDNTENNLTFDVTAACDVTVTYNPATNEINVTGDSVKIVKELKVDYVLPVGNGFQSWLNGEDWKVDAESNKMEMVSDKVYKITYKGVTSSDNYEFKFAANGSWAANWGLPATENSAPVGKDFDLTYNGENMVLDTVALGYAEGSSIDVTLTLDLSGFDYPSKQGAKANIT
Sequence of Sas20d1 (Z9RYL2BLZ4 14-251 limits assumed): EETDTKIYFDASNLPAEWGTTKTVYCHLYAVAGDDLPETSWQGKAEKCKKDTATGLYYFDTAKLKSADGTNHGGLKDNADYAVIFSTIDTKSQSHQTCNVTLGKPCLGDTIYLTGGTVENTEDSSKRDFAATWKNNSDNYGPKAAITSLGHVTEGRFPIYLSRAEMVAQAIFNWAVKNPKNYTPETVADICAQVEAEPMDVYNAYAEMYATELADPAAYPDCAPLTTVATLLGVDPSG
Sequence of Sca5X25-2 (Z9P1N1M2Z2 14-256 limits assumed): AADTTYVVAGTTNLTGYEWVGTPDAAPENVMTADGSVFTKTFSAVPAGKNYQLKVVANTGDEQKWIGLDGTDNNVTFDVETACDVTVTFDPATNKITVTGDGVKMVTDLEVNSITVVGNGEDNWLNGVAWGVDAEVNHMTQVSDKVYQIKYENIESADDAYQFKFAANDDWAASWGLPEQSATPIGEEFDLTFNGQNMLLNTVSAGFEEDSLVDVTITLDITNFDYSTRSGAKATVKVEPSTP
Sequence of Sas20d1tr (Z9RYL2BLZ4 14-173 limits assumed): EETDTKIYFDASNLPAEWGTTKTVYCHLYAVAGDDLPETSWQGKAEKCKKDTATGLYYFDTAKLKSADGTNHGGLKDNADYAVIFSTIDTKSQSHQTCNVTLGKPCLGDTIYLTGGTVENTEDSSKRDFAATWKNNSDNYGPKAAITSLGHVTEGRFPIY
Sequence of Sca5X25-2a (Z9P1N1M2Z2 13-117 limits assumed): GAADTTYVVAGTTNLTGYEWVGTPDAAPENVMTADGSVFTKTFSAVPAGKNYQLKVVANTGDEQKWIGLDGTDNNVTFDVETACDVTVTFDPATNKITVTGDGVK
Sequence of Sca5X25-2b (Z9P1N1M2Z2 118-256 limits assumed): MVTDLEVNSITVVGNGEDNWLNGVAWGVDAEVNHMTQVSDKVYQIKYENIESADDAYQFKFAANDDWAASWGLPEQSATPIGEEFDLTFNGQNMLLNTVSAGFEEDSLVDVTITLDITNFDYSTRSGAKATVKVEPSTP

Compound: OC[C@H]1O[C@H](O[C@H]2[C@H](O)[C@@H](O)[C@@H](O[C@H]3[C@H](O)[C@@H](O)C(O)O[C@@H]3CO)O[C@@H]2CO)[C@H](O)[C@@H](O)[C@@H]1O (some centres unmarked) [Maltotriose, maltotriose]
- Kd (μM) (Sas20d1 W72A): did not bind
- Kd (μM) (Sas20d2 W329A; [1]): loss of binding
- Kd (μM) (Sas20d2 W375A; [1]): loss of binding
- Kd (μM) (Sas20d2 W440A; [1]): loss of binding
- Kd (μM) (Sas20d2 W481A): eliminated binding
- N (binding sites) (Sas20d2): 1.18 ± 0.05

Compound: O=[N+]([O-])c1ccc(OC2OC(CO)C(OC3OC(CO)C(OC4OC(CO)C(OC5OC(CO)C(OC6OC(CO)C(OC7OC(CO)C(OC8OC9COC(c%10ccccc%10)OC9C(O)C8O)C(O)C7O)C(O)C6O)C(O)C5O)C(O)C4O)C(O)C3O)C(O)C2O)cc1 (centres unmarked) [B-PNP-M7, benzylidene-blocked para-nitrophenyl maltoheptaoside]
- Kd (Sas20d1): 7.12 ± 1.53 µM
- N (binding sites) (Sas20d1): 1.28 ± 0.29

Compound: OC[C@H]1O[C@@H]2O[C@H]3[C@H](O)[C@@H](O)[C@@H](O[C@H]4[C@H](O)[C@@H](O)[C@@H](O[C@H]5[C@H](O)[C@@H](O)[C@@H](O[C@H]6[C@H](O)[C@@H](O)[C@@H](O[C@H]7[C@H](O)[C@@H](O)[C@@H](O[C@H]8[C@H](O)[C@@H](O)[C@@H](O[C@H]1[C@H](O)[C@H]2O)O[C@@H]8CO)O[C@@H]7CO)O[C@@H]6CO)O[C@@H]5CO)O[C@@H]4CO)O[C@@H]3CO [β-Cyclodextrin, β-cyclodextrin]
- Kd (μM) (Sas20d1): failed to bind
- Kd (μM) (Sas20d2; [2]): weak binding
- N (binding sites) (Sas20d2): 0.98 ± 0.09
- Kd (Sca5X25-2): 346 ± 78.8 µM
- N (binding sites) (Sca5X25-2; ITC, one-site binding model): 0.958 ± 0.01
- Kd (Sas20d1tr; Kd): > 1000 µM
- Kd (Sas20d1tr; [3]): 1050 ± 168 µM

Compound: O=[N+]([O-])c1ccc(O[C@H]2O[C@H](CO)[C@@H](O[C@H]3O[C@H](CO)[C@@H](O[C@H]4O[C@H](CO)[C@@H](O[C@H]5O[C@H](CO)[C@@H](O[C@H]6O[C@H](CO)[C@@H](OC7OC(CO)C(O)C(O)C7O)[C@H](O)[C@H]6O)[C@H](O)[C@H]5O)[C@H](O)[C@H]4O)[C@H](O)[C@H]3O)[C@H](O)[C@H]2O)cc1 (stereo partly drawn) [PNP-M6, PNP-α-maltohexaose]
- Kd (Sas20d1): 0.87 ± 0.48 µM
- N (binding sites) (Sas20d1): 1.15 ± 0.07

Compound: OC[C@H]1O[C@@H]2O[C@H]3[C@H](O)[C@@H](O)[C@@H](O[C@H]4[C@H](O)[C@@H](O)[C@@H](O[C@H]5[C@H](O)[C@@H](O)[C@@H](O[C@H]6[C@H](O)[C@@H](O)[C@@H](O[C@H]7[C@H](O)[C@@H](O)[C@@H](O[C@H]1[C@H](O)[C@H]2O)O[C@@H]7CO)O[C@@H]6CO)O[C@@H]5CO)O[C@@H]4CO)O[C@@H]3CO [α-Cyclodextrin, α-cyclodextrin]
- Kd (μM) (Sas20d1): failed to bind
- Kd (μM) (Sas20d2; [2]): Neither Sas20d2 nor Sca5X25-2 bound; also recorded: failed to bind
- Kd (μM) (Sca5X25-2; ITC, 25 °C, one-site binding model, average of three replicates): Neither Sas20d2 nor Sca5X25-2 bound
- Kd (Sas20d1tr): > 1000 µM

Compound: soluble starch
- Kd (Sas20d1): ≤ 20 µM
- Kd (Sas20d2; [2]): ≤ 20 µM

Compound: OC[C@H]1O[C@H](O[C@H]2[C@H](O)[C@@H](O)[C@@H](O[C@H]3[C@H](O)[C@@H](O)[C@@H](O[C@H]4[C@H](O)[C@@H](O)[C@@H](O[C@H]5[C@H](O)[C@@H](O)[C@@H](O[C@H]6[C@H](O)[C@@H](O)[C@@H](O[C@H]7[C@H](O)[C@@H](O)C(O)O[C@@H]7CO)O[C@@H]6CO)O[C@@H]5CO)O[C@@H]4CO)O[C@@H]3CO)O[C@@H]2CO)[C@H](O)[C@@H](O)[C@@H]1O (some centres unmarked) [Maltoheptaose, maltoheptaose]
- Kd (Sas20d1 Y60A): 8.29 ± 0.51 µM
- Kd (μM) (Sas20d1 Y60A): binds
- Kd (μM) (Sas20d1 W72A): did not bind
- fold increase in the Kd compared with WT Sas20d2 (Sas20d2 W329A): ~100 fold
- Kd (Sas20d2 W329A; [1]): 90.8 ± 25.7 µM
- fold increase in the Kd compared with WT Sas20d2 (Sas20d2 W375A): ~100 fold
- Kd (Sas20d2 W375A; [1]): 88.1 ± 36 µM
- fold increase in the Kd compared with WT Sas20d2 (Sas20d2 W440A): ~100 fold
- Kd (Sas20d2 W440A; [1]): 90 ± 7.72 µM
- Kd (μM) (Sas20d2 W481A): eliminated binding
- Kd (Sas20d1; Kd (μM)): ≤ 20 µM and 1.5 µM and 1.53 µM
- N (binding sites) (Sas20d1): 0.89 ± 0.38
- fold lower Kd for maltoheptaose over maltotriose (Sas20d2): ~1500 ×
- N (binding sites) (Sas20d2): 1.15 ± 0.15
- Kd (Sca5X25-2): 0.21 ± 0.029 µM
- N (binding sites) (Sca5X25-2; ITC, one-site binding model): 0.81 ± 0.09
- Kd (μM) (Sca5X25-2a): failed to bind
- Kd (μM) (Sca5X25-2b): failed to bind
- fold decrease in binding versus full-length Sas20d1 (Sas20d1tr): ~100 fold
- Kd (Sas20d1tr; [3]): 155 ± 63 µM
- N (binding sites) (Sas20d1tr; one-site binding model): 1.45 ± 0.27
